Assay results taken from ChEMBL document CHEMBL1201862, “PubChem BioAssay data set” (2004).
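Growth conditions: 96-well plates. Treatment: test compound, 48 hours, 5 concentrations. Analysis: linear interpolation between bracketing concentrations; unreached endpoints set to highest concentration. The concentration for 50% growth inhibition is given as GI50.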 Active and inactive are the calls of the source. Rule as the data show it: active = GI50 up to about 1.1 µM and inactive = higher.

How the values were obtained:
Assay in all cases: NCI anticancer screen, dose series, 48 h
[1] = system: OVCAR-8
[2] = system: NCI-H522
[3] = system: MDA-N
[4] = system: SN12C
[5] = system: 786-0
[6] = system: BT-549
[7] = system: MCF7
[8] = system: OVCAR-3
[9] = system: HCT-15
[10] = system: ACHN
[11] = system: OVCAR-4
[12] = system: NCI/ADR-RES
[13] = system: SK-MEL-28
[14] = system: T47D
[15] = system: CAKI-1
[16] = system: RPMI-8226
[17] = system: SF-295
[18] = system: U-251
[19] = system: SNB-75
[20] = system: LOX IMVI

Structure (SMILES)	GI50 [1]	GI50 [2]	GI50 [3]	GI50 [4]	GI50 [5]	GI50 [6]	GI50 [7]	GI50 [8]	GI50 [9] [µM]	GI50 [10]	GI50 [11]	GI50 [12]	GI50 [13]	GI50 [14]	GI50 [15]	GI50 [16]	GI50 [17]	GI50 [18]	GI50 [19]	GI50 [20]
O=C(/C=C/c1ccc(O)c(O)c1)OCCc1cccc2ccccc12	5.07 µM (inactive)	0.948 µM (active)	1.87 µM (inactive)	2.56 µM (inactive)	3 µM (inactive)	7.85 µM (inactive)	7.31 µM (inactive)	2.32 µM (inactive)	1.28	3.78 µM (inactive)	10.7 µM (inactive)	6.15 µM (inactive)	4.15 µM (inactive)	12.6 µM (inactive)	8.36 µM (inactive)	2.3 µM (inactive)	5.26 µM (inactive)	6.15 µM (inactive)	2.52 µM (inactive)	–
CCOC1(OCC)C2C=CC1C(COS(=O)(=O)c1ccc(C)cc1)C2COS(=O)(=O)c1ccc(C)cc1 (centres undefined)	40.9 µM (inactive)	18.1 µM (inactive)	28.8 µM (inactive)	69.8 µM (inactive)	33.3 µM (inactive)	29.3 µM (inactive)	30.2 µM (inactive)	22.5 µM (inactive)	26	33.7 µM (inactive)	20.8 µM (inactive)	32 µM (inactive)	84.9 µM (inactive)	14.2 µM (inactive)	–	–	96.6 µM (inactive)	29.9 µM (inactive)	24.8 µM (inactive)	24.9 µM (inactive)
O=C(Cl)C1=C(c2ccccc2)C1c1ccccc1 (centres undefined)	> 100 µM (inactive)	> 100 µM (inactive)	> 100 µM (inactive)	> 100 µM (inactive)	> 100 µM (inactive)	> 100 µM (inactive)	> 100 µM (inactive)	> 100 µM (inactive)	> 100	> 100 µM (inactive)	> 100 µM (inactive)	–	> 100 µM (inactive)	> 100 µM (inactive)	> 100 µM (inactive)	> 100 µM (inactive)	> 100 µM (inactive)	> 100 µM (inactive)	> 100 µM (inactive)	> 100 µM (inactive)
CCOC(=O)[C@H](C)OC(=O)[C@@](C)(NC(=O)c1ccccc1C(=O)OC)[C@@H]1NC=C(C(=O)OC)CS1	> 100 µM (inactive)	> 100 µM (inactive)	21.9 µM (inactive)	> 100 µM (inactive)	> 100 µM (inactive)	> 100 µM (inactive)	79.1 µM (inactive)	> 100 µM (inactive)	> 100	> 100 µM (inactive)	> 100 µM (inactive)	> 100 µM (inactive)	> 100 µM (inactive)	91.2 µM (inactive)	> 100 µM (inactive)	38.1 µM (inactive)	> 100 µM (inactive)	> 100 µM (inactive)	25.4 µM (inactive)	–
COC(=O)C1=C(O)C(C(=O)OC)[C@]2(O)[C@@H](C(=O)OC)[C@H]1[C@H](C)[C@@H](c1ccccc1)[C@@H]2C(=O)OC (some centres undefined)	54.2 µM (inactive)	18.9 µM (inactive)	29.2 µM (inactive)	66.4 µM (inactive)	62.2 µM (inactive)	38.8 µM (inactive)	–	54 µM (inactive)	57.8	91.8 µM (inactive)	80 µM (inactive)	40.7 µM (inactive)	> 100 µM (inactive)	> 100 µM (inactive)	> 100 µM (inactive)	–	78.2 µM (inactive)	> 100 µM (inactive)	> 100 µM (inactive)	53.7 µM (inactive)
CC1CCCOc2ccc(cc2)/C=N\c2ccc(cc2)CCc2ccc(cc2)/N=C\c2ccc(cc2)OCCC1	> 100 µM (inactive)	> 100 µM (inactive)	> 100 µM (inactive)	> 100 µM (inactive)	> 100 µM (inactive)	> 100 µM (inactive)	> 100 µM (inactive)	> 100 µM (inactive)	> 100	> 100 µM (inactive)	> 100 µM (inactive)	> 100 µM (inactive)	> 100 µM (inactive)	–	> 100 µM (inactive)	> 100 µM (inactive)	> 100 µM (inactive)	> 100 µM (inactive)	> 100 µM (inactive)	> 100 µM (inactive)
CC(C)(C)OC(=O)n1c(Cl)c(C=O)c2ccccc21	28.1 µM (inactive)	> 100 µM (inactive)	44.5 µM (inactive)	23.7 µM (inactive)	21 µM (inactive)	21.3 µM (inactive)	–	19.4 µM (inactive)	27.1	23.9 µM (inactive)	36.6 µM (inactive)	30.7 µM (inactive)	39.9 µM (inactive)	30.6 µM (inactive)	17.2 µM (inactive)	10.9 µM (inactive)	63.2 µM (inactive)	35.6 µM (inactive)	68.5 µM (inactive)	26.4 µM (inactive)
O=c1c2cc(Br)ccc2oc2ccc(Br)cc12	> 100 µM (inactive)	> 100 µM (inactive)	> 100 µM (inactive)	> 100 µM (inactive)	64.7 µM (inactive)	> 100 µM (inactive)	27.5 µM (inactive)	71.8 µM (inactive)	> 100	> 100 µM (inactive)	46.3 µM (inactive)	> 100 µM (inactive)	> 100 µM (inactive)	81.3 µM (inactive)	> 100 µM (inactive)	> 100 µM (inactive)	> 100 µM (inactive)	64.6 µM (inactive)	24.7 µM (inactive)	–
Cc1ccc(S(=O)(=O)c2c(O)c3ccc(O)c(C)c3oc2=O)cc1	> 100 µM (inactive)	> 100 µM (inactive)	> 100 µM (inactive)	> 100 µM (inactive)	> 100 µM (inactive)	> 100 µM (inactive)	> 100 µM (inactive)	> 100 µM (inactive)	> 100	> 100 µM (inactive)	> 100 µM (inactive)	> 100 µM (inactive)	> 100 µM (inactive)	> 100 µM (inactive)	> 100 µM (inactive)	> 100 µM (inactive)	> 100 µM (inactive)	> 100 µM (inactive)	> 100 µM (inactive)	–
CCCCCCCCCCCCCCCCP(=O)(O)OP(=O)(O)OCC1OC(n2cnc3c(N)ncnc32)C(O)C1O (centres undefined)	22 µM (inactive)	22.1 µM (inactive)	43.4 µM (inactive)	20.8 µM (inactive)	22.8 µM (inactive)	42.4 µM (inactive)	22.6 µM (inactive)	32.2 µM (inactive)	23.8	26.7 µM (inactive)	36.3 µM (inactive)	31.1 µM (inactive)	35.7 µM (inactive)	82.6 µM (inactive)	28.7 µM (inactive)	–	–	20 µM (inactive)	20.5 µM (inactive)	27.4 µM (inactive)
Brc1ccc(/N=N/N2CCCC2)cc1	–	27.4 µM (inactive)	64.9 µM (inactive)	59 µM (inactive)	> 100 µM (inactive)	44.6 µM (inactive)	65.8 µM (inactive)	81.5 µM (inactive)	50.7	71.6 µM (inactive)	> 100 µM (inactive)	–	> 100 µM (inactive)	14.4 µM (inactive)	27.7 µM (inactive)	51.1 µM (inactive)	77.1 µM (inactive)	89.1 µM (inactive)	–	40.4 µM (inactive)
